These results are taken from US4772595A, “Synthetic virginiamycin M1 analogs” (Merck & Co., Inc., priority 1986, dated 1988).

In one assay the target is T1, Brain CCK Receptor (Cavia porcellus, UniProt H0VZC5).
T1 construct: The cerebral cortex was dissected and used as a receptor source; from tissue; host or cells: cerebral cortex membranes of male Hartley guinea pigs
T1 sequence (H0VZC5 1-426): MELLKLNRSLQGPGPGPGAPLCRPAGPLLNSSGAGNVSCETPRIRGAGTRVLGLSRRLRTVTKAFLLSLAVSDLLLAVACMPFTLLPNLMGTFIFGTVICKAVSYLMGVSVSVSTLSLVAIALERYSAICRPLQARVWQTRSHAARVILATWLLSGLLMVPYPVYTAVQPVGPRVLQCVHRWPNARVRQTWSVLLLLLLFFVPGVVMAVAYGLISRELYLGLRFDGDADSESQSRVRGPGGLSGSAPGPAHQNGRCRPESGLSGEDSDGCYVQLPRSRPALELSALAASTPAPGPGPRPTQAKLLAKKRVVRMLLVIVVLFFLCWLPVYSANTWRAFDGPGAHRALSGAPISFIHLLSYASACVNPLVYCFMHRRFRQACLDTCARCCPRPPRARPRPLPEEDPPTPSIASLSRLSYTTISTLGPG
Description: Brain Cholecystokinin Receptor Binding Assay (cerebral cortex). As to conditions: guinea pig cerebral cortex, 125I-CCK-8, 25° C., 2 hours. The procedure: CCK-8 binding was performed according to the description for the pancreatic method, with modifications by Saito et al., J. Neurochem., 37, 483 (1981).
The brains from male Hartley guinea pigs (300-500 g) were removed and placed in ice-cold 50 mM Tris HCl plus 7.58 g/L Trizma-7.4 [pH 7.4 at 25° C.]. The cerebral cortex was dissected and used as a receptor source and each gram of fresh guinea pig brain tissue was homogenized in 10 ml of Tris/Trizma buffer, pH 7.4, with a Brinkmann polytron PT-10. The homogenates were centrifuged at 42,000×g for 15 minutes, then the resulting pellets were resuspended in 200 volumes of binding assay buffer (10 mM N-2-hydroxy-ethyl-piperazine-N'-2-ethane-sulfonic acid (HEPES), pH 7.7 at 25° C., MgCl2, 1 mM ethylene glycol-bis-(β-amino-ethyl-ether-N,N'-tetraacetic acid (EGTA), 0.4% BSA and 0.25 mg/ml bacitracin, pH 6.5).
The remainder of the binding assay method was as described for the pancreatic method, Example 6, except that the reaction mixtures were incubated at 25° C. for 2 hours before filtration and the filters were washed with HEPES buffer.

Assay [1] concerns CCK and gastrin receptors. Description: Binding to both CCK and gastrin receptors (summary statement). As to conditions: summary in words. On the procedure:
Biological activity of virginiamycin M1 and the compounds of Formulae I, II, III and IV is determined by gastrin receptor binding, pancreas CCK receptor binding, brain CCK binding and microbial growth inhibition assays.

The test system of a further assay is gram-positive bacteria. As to conditions: cited from earlier work.
The conditions of assay [2]: C-terminal octapeptide vs CCK-33; cited from earlier work.
In the next assay the test system is gastric acid secretion. As to conditions: cited from earlier work.

Usually IC50 stands for the midpoint of a concentration-inhibition curve. A lower IC50 goes with greater potency. `CC1=C\C=C\C(=O)Cc2nc(co2)C(=O)N2CCC=C2C(=O)O[C@H](C(C)C)[C@H](C)/C=C/C(=O)NC\C=C\1` [Compound III]: the IC50 on Brain CCK Receptor turned out to be 0.0133 µM. The “binding to CCK and gastrin receptors” value in assay [1] is “bind to both CCK and gastrin receptors”.
As to `CC1=C\C=C\[C@H](O)Cc2nc(co2)C(=O)N2CCC=C2C(=O)O[C@H](C(C)C)[C@H](C)/C=C/C(=O)NC\C=C\1` [Compound II], on Brain CCK Receptor, the IC50 is 0.0061 µM. Also, in assay [1], the “binding to CCK and gastrin receptors” value was “bind to both CCK and gastrin receptors”.
Molecule `CC1=C\C=C\[C@@H](O)Cc2nc(co2)C(=O)N2CCC=C2C(=O)O[C@H](C(C)C)[C@H](C)/C=C/C(=O)NC\C=C\1` [Compound I] had an IC50 at Brain CCK Receptor of 0.0078 µM. Besides, in assay [1], the “binding to CCK and gastrin receptors” value was “bind to both CCK and gastrin receptors”.
Turning to `CC1=C\CCC(=O)Cc2nc(co2)C(=O)N2CCC=C2C(=O)O[C@H](C(C)C)[C@H](C)/C=C/C(=O)NC\C=C\1` [IV], the IC50 on Brain CCK Receptor is 0.27 µM. For the same molecule, the “binding to CCK and gastrin receptors” value in assay [1] was “bind to both CCK and gastrin receptors”.
`CC1=C\[C@@H](O)CC(=O)Cc2nc(co2)C(=O)N2CCC=C2C(=O)O[C@H](C(C)C)[C@H](C)/C=C/C(=O)NC\C=C\1` [Virginiamycin M1] returned an IC50 on Brain CCK Receptor of 0.571 µM. Moreover, the “binding to CCK and gastrin receptors” value in assay [1] was “bind to both CCK and gastrin receptors”. For the same molecule, the antibacterial specificity entry in the assay on gram-positive bacteria is “generally specific for gram-positive bacteria and prevent cell multiplication”.
“C-terminal octapeptide: C-terminal octapeptide has the same efficacy as CCK-33”: in assay [2], the “efficacy relative to CCK-33” value was “same efficacy as CCK-33” and the “potency relative to CCK-33” value is given as “approximately ten”.
Turning to “Gastrin-17: 17-amino acid form of gastrin, C-terminal fragment of the 34-amino acid form”, in the assay with gastric acid secretion (Gastrin-17 vs Gastrin-13), the “potency relative to Gastrin-13” value is given as 2.5 times. In addition, the “potency relative to Gastrin-34” value with gastric acid secretion (Gastrin-17 vs Gastrin-34) was 5 times.
